Reference: US20260224588A1, “BENZODIAZEPINONE-DERIVED INHIBITORS OF EGFR AND HER2” (The Research Foundation for the State University of New York, priority 2023, published 2026)
Entries after “also recorded” stand apart in the source; their conditions may differ. Read-outs that look alike come from different tables or passages of the source.

Tests used:
EGFR L858R kinase domain = target: T1, EGFR L858R kinase domain (Homo sapiens, UniProt P00533, L858R); test: HTRF-based activity assay; assay type: biochemical
T1 construct: The EGFR kinase domain (residues 696-1022) was cloned into pTriEx; 6xHis (N, cleaved yes); GST (N, cleaved yes); made in house; host or cells: SF9 insect cells (baculovirus)
Procedure: (§1) Protein expression and purification. The EGFR kinase domain (residues 696-1022) was cloned into pTriEx with an N-terminal 6×His-glutathione S-transferase (GST) fusion tag followed by a TEV protease cleavage site. EGFR WT, L858R, L858R/T790M, L858R/T790M/C797S was expressed after baculoviral infection in SF9 cells and EGFR(T790M/V948R) was expressed in SF21 cells. Briefly, cells were pelleted and resuspended in lysis buffer composed of 50 mM Tris pH 8.0, 500 mM NaCl, 1 mM tris(2-carboxyethyl)phosphine (TCEP), and 5% glycerol. Cells were lysed via sonication prior to ultracentrifugation at >200,000 g for 1 h. Imidazole pH 8.0 was added to the supernatant for a final concentration of 40 mM and flowed through a column containing Ni-NTA agarose beads. The resin was washed with lysis buffer supplemented with 40 mM imidazole and eluted with lysis buffer containing 200 mM imidazole. Eluted EGFR kinase domain was dialyzed overnight in the presence of 5% (w/w) TEV protease against dialysis buffer containing 50 mM Tris pH 8.0, 500 mM NaCl, 1 mM TCEP, and 5% glycerol. The cleaved protein was passed through Ni-NTA resin to remove the 6×His-GST fusion protein and TEV prior to size exclusion chromatography on a prep-grade Superdex S200 column in 50 mM Tris pH 8.0, 500 mM NaCl, 1 mM TCEP, and 5% glycerol.
(§2) HTRF Assays. Biochemical assays for EGFR domains were carried out using a homogeneous time-resolved fluorescence (HTRF) KinEASE-TK (Cisbio) assay, as described previously. Assays were optimized for ATP concentration of 100 μM with enzyme concentrations WT EGFR 10 nM, L858R 0.1 nM, L858R/T790M at 0.02 nM and L858R/T790M/C797S at 0.02 nM. Inhibitor compounds in DMSO were dispensed directly in 384-well plates with the D300 digital dispenser (Hewlett Packard) followed immediately by the addition of aqueous buffered solutions using the Multidrop Combi Reagent Dispenser (Thermo Fischer). […] The curves were fitted using a non-linear regression model with a sigmoidal dose response.

[1] = target: T2, EGFR L858R/T790M kinase domain (Homo sapiens, UniProt P00533, L858R/T790M); test: HTRF-based activity assay; assay type: biochemical
T2 construct: The EGFR kinase domain (residues 696-1022) was cloned into pTriEx; 6xHis (N, cleaved yes); GST (N, cleaved yes); made in house; host or cells: SF9 insect cells (baculovirus)
Procedure: as §1, §2

[2] = target: T3, EGFR L858R/T790M/C797S kinase domain (Homo sapiens, UniProt P00533, C797S/L858R/T790M); test: HTRF-based activity assay; assay type: biochemical
T3 construct: The EGFR kinase domain (residues 696-1022) was cloned into pTriEx; 6xHis (N, cleaved yes); GST (N, cleaved yes); made in house; host or cells: SF9 insect cells (baculovirus)
Procedure: as §1, §2

WT EGFR kinase domain = target: T4, WT EGFR kinase domain (Homo sapiens, UniProt P00533); test: HTRF-based activity assay; assay type: biochemical
T4 construct: The EGFR kinase domain (residues 696-1022) was cloned into pTriEx; 6xHis (N, cleaved yes); GST (N, cleaved yes); made in house; host or cells: SF9 insect cells (baculovirus)
Procedure: as §1, §2

[3] = test system: L858R EGFR mutant Ba/F3 cells; conditions: cited from earlier work
[4] = test system: wildtype EGFR Ba/F3 cells; conditions: from literature (footnotes a, c), read-out: Anti-proliferative EC50 ± SE, wt; cited from earlier work
[5] = test system: L858R/T790M EGFR mutant Ba/F3 cells; conditions: from literature (footnotes a, c), read-out: Anti-proliferative EC50 ± SE, LR/TM; cited from earlier work
[6] = test system: wildtype HER2 Ba/F3 cells; conditions: from Heppner et al. 2022, read-out: Anti-proliferative EC50 ± SE, HER2; cited from earlier work
[7] = test system: EGFR (L858R/T790M) in H1975 lung cancer cells; test: Western blotting of EGFR, ERK1/2 and AKT phosphorylation; assay type: cell-based, human; conditions: 6 hours treatment
Procedure: FIG. 2. […] All experiments performed after 6 hours treatments of inhibitors or DMSO controls and Western blots are representative of at least three independent experiments.
Western blotting. Cells were collected and lysed with lysis buffer (5M NaCl, 1M TRIS pH 8.0, 10% SDS, 10% Triton X-100 and a tablet of protease inhibitors) and processed for Western blotting analysis. Primary antibodies used; phospho-EGFR (Tyr1068; #2234, 1:1,000), EGFR (#4267; 1:1,000), phospho-AKT (Ser473; #4060, 1:1,000), AKT (#9272, 1:1,000), phospho-ERK1/2 (Thr202/Tyr204; #4370, 1:1,000), and ERK1/2 (#4695, 1:1,000) antibodies; were purchased from Cell Signaling Technology. Secondary Goat anti-rabbit IgG starbright blue 700 and Anti-tubulin hFAB Rhodamine Tubulin were purchased from Bio-rad.

[8] = 100 μM ATP, enzyme 0.1 nM, read-out: Biochemical EGFR IC50, LR
[9] = from literature (footnotes a, c), read-out: Anti-proliferative EC50 ± SE, LR
[10] = 100 μM ATP, enzyme 0.02 nM, read-out: Biochemical EGFR IC50, LRTM
[11] = 100 μM ATP, enzyme 0.02 nM, read-out: Biochemical EGFR IC50, LRTMCS

T1 sequence (P00533 696-1022 L858R): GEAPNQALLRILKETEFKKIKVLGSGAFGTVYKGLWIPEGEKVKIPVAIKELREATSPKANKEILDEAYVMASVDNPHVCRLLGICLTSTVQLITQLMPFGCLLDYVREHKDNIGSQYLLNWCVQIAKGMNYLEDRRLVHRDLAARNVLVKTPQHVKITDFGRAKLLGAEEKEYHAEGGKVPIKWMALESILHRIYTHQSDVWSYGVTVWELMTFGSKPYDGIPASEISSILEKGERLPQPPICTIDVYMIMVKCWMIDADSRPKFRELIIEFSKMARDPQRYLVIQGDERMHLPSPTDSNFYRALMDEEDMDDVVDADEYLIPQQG
T2 sequence (P00533 696-1022 T790M/L858R): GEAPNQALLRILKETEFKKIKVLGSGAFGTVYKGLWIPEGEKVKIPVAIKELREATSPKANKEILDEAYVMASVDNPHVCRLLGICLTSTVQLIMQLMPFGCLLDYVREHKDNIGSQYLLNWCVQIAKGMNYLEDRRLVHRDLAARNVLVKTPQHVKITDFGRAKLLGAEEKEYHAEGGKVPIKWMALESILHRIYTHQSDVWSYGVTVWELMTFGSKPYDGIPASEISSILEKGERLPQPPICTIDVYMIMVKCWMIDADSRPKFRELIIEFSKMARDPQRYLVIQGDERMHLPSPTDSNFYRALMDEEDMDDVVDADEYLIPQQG
T3 sequence (P00533 696-1022 T790M/C797S/L858R): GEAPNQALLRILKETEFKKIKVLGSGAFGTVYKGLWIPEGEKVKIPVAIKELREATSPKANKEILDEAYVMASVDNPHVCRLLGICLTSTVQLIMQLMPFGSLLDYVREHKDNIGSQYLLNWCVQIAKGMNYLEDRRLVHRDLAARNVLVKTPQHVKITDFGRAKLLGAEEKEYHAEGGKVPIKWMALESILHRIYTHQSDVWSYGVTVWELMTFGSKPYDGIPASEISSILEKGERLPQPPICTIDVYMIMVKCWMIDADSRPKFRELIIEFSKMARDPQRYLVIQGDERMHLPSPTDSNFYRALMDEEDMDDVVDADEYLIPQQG
T4 sequence (P00533 696-1022): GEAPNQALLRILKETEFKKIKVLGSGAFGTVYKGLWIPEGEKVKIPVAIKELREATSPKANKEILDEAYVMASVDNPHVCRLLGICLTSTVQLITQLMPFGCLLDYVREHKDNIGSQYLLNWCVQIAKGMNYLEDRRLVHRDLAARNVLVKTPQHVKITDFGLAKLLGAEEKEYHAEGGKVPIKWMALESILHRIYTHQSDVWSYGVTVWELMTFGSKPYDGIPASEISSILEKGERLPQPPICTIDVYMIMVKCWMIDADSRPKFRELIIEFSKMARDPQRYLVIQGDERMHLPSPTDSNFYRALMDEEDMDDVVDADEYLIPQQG

SMILES	IC50 (EGFR L858R kinase domain; [8]) [nM]	IC50 [1, 10] [nM]	IC50 [2, 11] [nM]	EC50 [3, 9] [nM]	other results
O=C1c2ccccc2Nc2ccc(F)cc2N1Cc1ccccc1 [DDC4002]	–	–	–	> 10000	EC50 ([3]; experiments that include cetuximab, from De Clercq and Heppner et al. 2019, read-out: Anti-proliferative EC50 ± SE, LR): > 10000 nM
C=CC(=O)Nc1cc(Nc2nccc(-c3cn(C)c4ccccc34)n2)c(OC)cc1N(C)CCN(C)C [Osimertinib]	–	–	–	3.3 ± 0.6	EC50 [4]: 110 ± 40 nM; EC50 [5]: 8 nM; EC50 [6]: 34 ± 8 nM
CSc1nc(-c2cccc(NC(=O)c3cccc4c3NC(=O)c3ccccc3N4)c2)c(-c2ccnc(NC(C)=O)c2)[nH]1 [Compound 2, N-(3-(5-(2-Acetamidopyridin-4-yl)-2-(methylthio)-1H-imidazol-4-yl)phenyl)-11-oxo-10,11-dihydro-5H-dibenzo[b,e][1,4]diazepine-9-carboxamide]	1.5 ± 0.1	0.059 ± 0.005	0.064 ± 0.004	–	EGFR, ERK1/2 and AKT phosphorylation (Western blot) [7]: less effective; also recorded: suppresses EGFR phosphorylation

More lines, main results first:

IC50 (EGFR L858R kinase domain; [8]) [nM]	IC50 [1, 10] [nM]	IC50 [2, 11] [nM]	SMILES	EC50 [3, 9] [nM]	other results
1300 ± 100	–	–	CSc1nc(-c2cccc(CN3C(=O)c4ccccc4Nc4ccc(F)cc43)c2)c(-c2ccnc(NC(C)=O)c2)[nH]1 [Compound 1, N-(4-(4-(3-((8-Fluoro-11-oxo-5,11-dihydro-10H-dibenzo[b,e][1,4]diazepin-10-yl)methyl)phenyl)-2-(methylthio)-1H-imidazol-5-yl)pyridin-2-yl) acetamide]	–	IC50 (EGFR L858R kinase domain; read-out: IC50 values, LR): > 1000 nM; IC50 ([1]; read-out: IC50 values, LRTM): > 1000 nM; IC50 ([2]; read-out: IC50 values, LRTMCS): > 1000 nM; IC50 (WT EGFR kinase domain; read-out: IC50 values, WT EGFR): > 1000 nM
1.2 ± 0.09	0.051 ± 0.005	0.063 ± 0.005	CCc1nc(-c2cccc(NC(=O)c3cccc4c3NC(=O)c3ccccc3N4)c2)c(-c2ccnc(NC(C)=O)c2)[nH]1 [Compound 3, N-(3-(5-(2-Acetamidopyridin-4-yl)-2-ethyl-1H-imidazol-4-yl)phenyl)-11-oxo-10,11-dihydro-5H-dibenzo[b,e][1,4]diazepine-9-carboxamide]	–	–
1.1 ± 0.2	0.87 ± 0.09	1 ± 0.1	CCc1nc(-c2cccc(NC(=O)c3cccc4c3NC(=O)c3ccccc3N4)c2)c(-c2ccnc(Nc3ccccc3)c2)[nH]1 [Compound 5, N-(3-(2-ethyl-5-(2-(phenylamino)pyridin-4-yl)-1H-imidazol-4-yl)phenyl)-11-oxo-10,11-dihydro-5H-dibenzo[b,e][1,4]diazepine-9-carboxamide]	–	IC50 (WT EGFR kinase domain; 100 μM ATP, enzyme 10 nM, read-out: Biochemical EGFR IC50, wt): < 10 nM
